Assay results as given in patent US7332476B2, “Pyridyl substituted ketolide antibiotics” (Novartis AG, priority 2003, dated 2008).

Key:
Experiment in all cases: MIC, broth microdilution (NCCLS)
Format in all cases: cell-based
[1] = tested on: Streptococcus pneumoniae Stpn_280-962
Method: (§1) Strains. The bacterial isolates listed in Table 4 were cultivated from −70° C. frozen stocks by two consecutive overnight passages (P1, P2) at 35° C. on 5% blood agar (Remel, Lenexa, Kans.). Chocolate agar (Remel) is used for Haemophilus influenzae. H. influenzae and Streptococcus pneumoniae are incubated in 5-10% CO2
(§2) Drug Stock Preparation. To determine the amount of solvent to be used to give the desired final concentration, the formula “weight obtained in mg/final concentration in mg/ml” will be used. It will give the amount of solvent in ml needed to be added to give the desired concentration. For example, if 2.5 mg/ml is the desired concentration and the weight of compound is 13.7 mg, then the amount of solvent to be added is […]. Methanol is used as the solvent to dissolve the test compounds. Further dilution of stock is done in sterile, deionized water. Drug stocks are kept frozen at −70° C., protected from light.
(§3) Susceptibility Testing. MICs are determined by the broth microdilution method in accordance with the NCCLS guidelines. In brief, organism suspensions are adjusted to a 0.5 McFarland standard to yield a final inoculum between 3×10^5 and 7×10^5 CFU/ml. Drug dilutions and inocula are made in sterile, cation adjusted Mueller-Hinton Broth (CAMHB) (Remel) for all but S. pneumoniae [CAMHB with 2-5% lysed horse blood (Remel)] and H. influenzae [Haemophilus Test Medium (Remel)]. An inoculum volume of 100 μl is added to wells containing 100 μl of broth with 2-fold serial dilutions of drug. All inoculated microdilution trays are incubated in ambient air at 35° C. for 18-24 hours, except for S. pneumoniae, and H. influenzae (both at 5-10% CO2).
(§4) Following appropriate incubation, the MIC is determined and the MIC is defined as the lowest concentration of the drug that prevented visible growth.
as §1, with “8” for “4”
(§5) Following appropriate incubation, the MIC is determined and the MIC is defined as the lowest concentration of the drug that prevented visible growth. […] Antibacterial activity of representative compounds of the invention were compared against telitromycin.

[2] = tested on: Streptococcus pyogenes Stpy_8668
Method: as §1, §2, §3, §4
as §1, with “8” for “4”
as §5

[3] = tested on: Streptococcus pneumoniae Stpn_297-749
Method: as §1, §2, §3, §4
as §1, with “8” for “4”
as §5

[4] = tested on: Streptococcus pneumoniae Stpn_49619
Method: as §1, §2, §3, §4
as §1, with “8” for “4”
as §5

[5] = Table 7, Strain ID H (Table 6): S. pneumoniae Stpn_280-962
[6] = Table 7, Strain ID G (Table 6): S. pneumoniae Stpn_297-749
[7] = Table 7, Strain ID F (Table 6): S. pneumoniae Stpn_49619
[8] = Table 7, Strain ID E (Table 6): S. pyogenes Stpy_8668

In the case of `CC[C@H]1OC(=O)[C@H](C)[C@@H](O[C@H]2C[C@@](C)(OC)[C@@H](O)[C@H](C)O2)[C@H](C)[C@@H](O[C@@H]2O[C@H](C)C[C@H](N(C)C)[C@H]2O)[C@](C)(OC)C[C@@H](C)C(=O)[C@H](C)[C@@H](O)[C@]1(C)O` [Clar., clarithromycin, reference compound], the MIC ([1]; Table 5, Strain ID G (Table 4): S. pneumoniae Stpn_280-962 Pen S) was “=0.05”, the MIC ([2]; Table 5, Strain ID D (Table 4): S. pyogenes Stpy_8668) was “=0.05” and the MIC ([3]; Table 5, Strain ID F (Table 4): S. pneumoniae Stpn_297-749 Pen R) was “=0.05”. The MIC ([4]; Table 5, Strain ID E (Table 4): S. pneumoniae Stpn_49619) was “=0.05”.
With `CC[C@H]1OC(=O)[C@@](C)(F)C(=O)[C@H](C)[C@@H](OC2O[C@H](C)C[C@H](N(C)C)[C@H]2O)[C@@](C)(OC)C[C@@H](C)C(=O)[C@H](C)[C@H]2N(CCCCc3ccnc4ccccc34)C(=O)O[C@]12CC` (stereo partly drawn) [Example 17, (3aS,4R,7S,9R,10R,11S,13R,15R,15aR)-3a,4-diethyl-7-fluoro-11-methoxy-7,9,11,13,15-pentamethyl-2,6,8,14-tetraoxo-1-(4-quinolin-4-ylbutyl)tetradecahydro-2H-oxacyclotetradecino[4,3-d][1,3]oxazol-10-yl-3,4,6-trideoxy-3-(dimethylamino)-D-xylo-hexopyranoside] the MIC [1, 5] was “=0.05”, the MIC [3, 6] was “=0.05” and the MIC [4, 7] was “=0.05”.
For `CC[C@H]1OC(=O)[C@@](C)(F)C(=O)[C@H](C)[C@@H](OC2O[C@H](C)C[C@H](N(C)C)[C@H]2O)[C@@](C)(OC)C[C@@H](C)C(=O)[C@H](C)[C@H]2N(CCCCc3ccc4ccccc4n3)C(=O)O[C@]12CC` (stereo partly drawn) [Example 19, (3aS,4R,7S,9R,10R,11S,13R,15R,15aR)-3a,4-diethyl-7-fluoro-11-methoxy-7,9,11,13,15-pentamethyl-2,6,8,14-tetraoxo-1-(4-quinolin-2-ylbutyl)tetradecahydro-2H-oxacyclotetradecino[4,3-d][1,3]oxazol-10-yl-3,4,6-trideoxy-3-(dimethylamino)-D-xylo-hexopyranoside], the MIC [1, 5] was “=0.05”, the MIC [3, 6] was “=0.05” and the MIC [4, 7] was “=0.05”.
`CC[C@H]1OC(=O)[C@H](C)C(=O)[C@H](C)[C@@H](OC2O[C@H](C)C[C@H](N(C)C)[C@H]2O)[C@@](C)(OC)C[C@@H](C)C(=O)[C@H](C)[C@H]2N(CCCCn3cnc(-c4cccnc4)c3C)C(=O)O[C@]12CC` (stereo partly drawn) [Example 21, (3aS,4R,7R,9R,10R,11S,13R,15R,15aR)-3a,4-DIETHYL-11-METHOXY-7,9,11,13,15-PENTAMETHYL-1-[4-(5-METHYL-4-PYRIDIN-3-YL-1H-IMIDAZOL-1-YL)BUTYL]-2,6,8,14-TETRAOXOTETRADECAHYDRO-2H-OXACYCLOTETRADECINO[4,3-D][1,3]OXAZOL-10-YL-3,4,6-TRIDEOXY-3-(DIMETHYLAMINO)-D-XYLO-HEXOPYRANOSIDE] was tested, and the MIC [1, 5] was “=0.05”, the MIC [2, 8] was “=0.05” and the MIC [3, 6] was “=0.05”. The MIC [4, 7] was “=0.05”.
`CC[C@H]1OC(=O)[C@H](C)C(=O)[C@H](C)[C@@H](OC2O[C@H](C)C[C@H](N(C)C)[C@H]2O)[C@@](C)(OC)C[C@@H](C)C(=O)[C@H](C)[C@H]2N(CCCCn3cnc4ncccc43)C(=O)O[C@]12CC` (stereo partly drawn) [Example 22, (3aS,4R,7R,9R,10R,11S,13R,15R,15aR)-3a,4-diethyl-1-[4-(1H-imidazo[4,5-b]pyridin-1-yl)butyl]-11-methoxy-7,9,11,13,15-pentamethyl-2,6,8,14-tetraoxotetradecahydro-2H-oxacyclotetradecino[4,3-d][1,3]oxazol-10-yl-3,4,6-trideoxy-3-(dimethylamino)-D-xylo-hexopyranoside] was tested, and the MIC [1, 5] was “=0.05”, the MIC [2, 8] was “=0.05” and the MIC [3, 6] was “=0.05”. The MIC [4, 7] was “=0.05”.
With `CC[C@H]1OC(=O)[C@H](C)C(=O)[C@H](C)[C@@H](OC2O[C@H](C)C[C@H](N(C)C)[C@H]2O)[C@@](C)(OC)C[C@@H](C)C(=O)[C@H](C)[C@H]2N(CCN(C)Cc3cccnc3)C(=O)O[C@]12CC` (some centres unmarked) [Example 23] the MIC [1, 5] was “=0.05”, the MIC [2, 8] was “=0.05” and the MIC [3, 6] was “=0.05”. The MIC [4, 7] was “=0.05”.
In the case of `CC[C@H]1OC(=O)[C@H](C)C(=O)[C@H](C)[C@@H](OC2O[C@H](C)C[C@H](N(C)C)[C@H]2O)[C@@](C)(OC)C[C@@H](C)C(=O)[C@H](C)[C@H]2N(CCCCn3cnc(-c4cncnc4)c3)C(=O)O[C@]12CC` (stereo partly drawn) [Example 25, (3aS,4R,7R,9R,10R,11S,13R,15R,15aR)-3a,4-diethyl-11-methoxy-7,9,11,13,15-pentamethyl-2,6,8,14-tetraoxo-1-[4-(4-pyrimidin-5-yl-1H-imidazol-1-yl)butyl]tetradecahydro-2H-oxacyclotetradecino[4,3-d][1,3]oxazol-10-yl-3,4,6-trideoxy-3-(dimethylamino)-D-xylo-hexopyranoside], the MIC [1, 5] was “=0.05”, the MIC [2, 8] was “=0.05” and the MIC [3, 6] was “=0.05”. The MIC [4, 7] was “=0.05”.
With `CC[C@H]1OC(=O)[C@@](C)(F)C(=O)[C@H](C)[C@@H](OC2O[C@H](C)C[C@H](N(C)C)[C@H]2O)[C@@](C)(OC)C[C@@H](C)C(=O)[C@H](C)[C@H]2N(CCCCn3cnc4ncccc43)C(=O)O[C@]12CC` (stereo partly drawn) [Example 27, (3aS,4R,7S,9R,10R,11S,13R,15R,15aR)-3a,4-diethyl-7-fluoro-1-[4-(1H-imidazo[4,5-b]pyridin-1-yl)butyl]-11-methoxy-7,9,11,13,15-pentamethyl-2,6,8,14-tetraoxotetradecahydro-2H-oxacyclotetradecino[4,3-d][1,3]oxazol-10-yl-3,4,6-trideoxy-3-(dimethylamino)-D-xylo-hexopyranoside] the MIC [1, 5] was “=0.025”, the MIC [2, 8] was “=0.025” and the MIC [3, 6] was “=0.025”.
For `CC[C@H]1OC(=O)[C@H](C)C(=O)[C@H](C)[C@@H](OC2O[C@H](C)C[C@H](N(C)C)[C@H]2O)[C@@](C)(OC)C[C@@H](C)C(=O)[C@H](C)[C@H]2N(CCCCn3cnc(-c4ccncc4)c3)C(=O)O[C@]12CC` (stereo partly drawn) [Example 28, (3aS,4R,7R,9R,10R,11S,13R,15R,15aR)-3a,4-DIETHYL-11-METHOXY-7,9,11,13,15-PENTAMETHYL-2,6,8,14-TETRAOXO-1-[4-(4-PYRIDIN-4-YL-1H-IMIDAZOL-1-YL)BUTYL]TETRADECAHYDRO-1H-OXACYCLOTETRADECINO[4,3-D][1,3]OXAZOL-10-YL-3,4,6-TRIDEOXY-3-(DIMETHYLAMINO)-D-XYLO-HEXOPYRANOSIDE], the MIC [1, 5] was “=0.05”, the MIC [2, 8] was “=0.05” and the MIC [3, 6] was “=0.05”. The MIC [4, 7] was “=0.05”.
For `CC[C@H]1OC(=O)[C@H](C)C(=O)[C@H](C)[C@@H](OC2O[C@H](C)C[C@H](N(C)C)[C@H]2O)[C@@](C)(OC)C[C@@H](C)C(=O)[C@H](C)[C@H]2N(CCCCn3cnc(-c4ccc(C)nc4)c3)C(=O)O[C@]12CC` (stereo partly drawn) [Example 29, (3aS,4R,7R,9R,10R,11S,13R,15R,15aR)-3a,4-diethyl-11-methoxy-7,9,11,13,15-pentamethyl-1-{4-[4-(6-methylpyridin-3-yl)-1H-imidazol-1-yl]butyl}-2,6,8,14-tetraoxotetradecahydro-2H-oxacyclotetradecino[4,3-d][1,3]oxazol-10-yl-3,4,6-trideoxy-3-(dimethylamino)-D-xylo-hexopyranoside], the MIC [1, 5] was “=0.05”, the MIC [2, 8] was “=0.05” and the MIC [3, 6] was “=0.05”. The MIC [4, 7] was “=0.05”.
For `CC[C@H]1OC(=O)[C@@](C)(F)C(=O)[C@H](C)[C@@H](OC2O[C@H](C)C[C@H](N(C)C)[C@H]2O)[C@@](C)(OC)C[C@@H](C)C(=O)[C@H](C)[C@H]2N(CCCCn3cnc(-c4ccc(C)nc4)c3)C(=O)O[C@]12CC` (stereo partly drawn) [Example 30, (3aS,4R,7S,9R,10R,11S,13R,15R,15aR)-3a,4-diethyl-7-fluoro-11-methoxy-7,9,11,13,15-pentamethyl-1-{4-[4-(6-methylpyridin-3-yl)-1H-imidazol-1-yl]butyl}-2,6,8,14-tetraoxotetradecahydro-2H-oxacyclotetradecino[4,3-d][1,3]oxazol-10-yl 3,4,6-trideoxy-3-(dimethylamino)-D-xylo-hexopyranoside], the MIC [1, 5] was “=0.05”, the MIC [2, 8] was “=0.05” and the MIC [3, 6] was “=0.05”. For the same compound, the MIC [4, 7] was “=0.05”.
